Source: patent EP4711371A1 (priority 2023, dated 2024)
Read-outs that look alike come from different tables or passages of the source.

Legend:
Type in all cases: cell-based
T47D [1] = assay: cells; details: Homo sapiens, 120 h, read-out: T47D IC50
Description: (§1) Test Example 2 In vitro proliferation inhibition assay of the camptothecin derivatives (Payload) of the present invention on tumor cells 1. Instruments and Reagents
(§2) 2. Experimental Procedure • a. Plating & culture: MDA-MB-453 (purchased from: Xiehe, catalog number: 1101HUM-PUMCO00016)/T47D (Kebai, CBP60397)/HT1376 cells (purchased from: Kebai, catalog number: CBP60310) were cultured into 96-well plates by a density of 1×10^3 /2×10^3 /1×10^3 cells per100 µL, and 200 µL of PBS was added to the outermost circle (to reduce the volatilization of the culture medium), and cultured at 37°C, 5% CO2 incubator for 24 h; • b. Drug Addition & Incubation: The 96-well flat-bottom plate was retrieved. The culture medium in the wells was aspirated, and 100 µL of the ADC drug/payload (diluted in culture medium) was added to each well. The plate was then incubated at 37°C, 5% CO2 incubator for 5 days. 3. Detection and data processing • a. The 96-well plate was retrieved. The culture medium was removed, and 100 µL of detection reagent (CCK8:medium= 1:9) was added to each well. The plate was then placed in a 37°C, 5% CO2 incubator for 4 hours; • b. The optical density (OD) at 450 nm was measured using a microplate reader (model: CEY0017), and the data was recorded with Excel. • c. Graphpad Prism 9.0 was used to analyze and organize the data.

HT1376 = assay: In vitro proliferation inhibition assay of camptothecin derivatives (Payload), Test Example 2; details: Homo sapiens, HT-1376, 120 h, read-out: HT1376 IC50
Description: as §1, §2

MDA-MB-453 [2] = assay: as above; details: Homo sapiens, MDA-MB-453, 120 h, read-out: MDA-MB-453 IC50
Description: as §1, §2

T47D [3] = assay: cells; details: Homo sapiens, 96 h, payload, cultured 4 days, CCK-8, read-out: T47D IC50
Description: (§3) The control compounds used in the experiment were DXD (synthesized from EXD according to the synthesis method of patent EP2907824B1. EXD was purchased from MedChemExpress, catalog number: HY-13631A) and SN38 (purchased from Bide Pharmatech, catalog number BD8481). Their structural formulas are [drawing 515] respectively.
(§4) The cell lines used in this experiment were human breast cancer cells SK-BR-3, T47D, MDA-MB-453, human malignant melanoma cells A375, human lung squamous carcinoma cells NCI-H1703, and human gastric cancer cells NCI-N87. Cell suspensions were prepared in fresh cell culture medium containing 10% FBS and then diluted to a density of 5 × 10^4 cells/mL, 10×10^4 cells/mL, 100 µL per well was added to a 96-well cell culture plate (Thermo catalog number: 167425), and cultured at 37°C with 5% carbon dioxide for 24 h.
(§5) The test compounds of the present invention and the control compounds were each prepared to 10 mM stock solutions in DMSO, and the drugs were diluted with 5% FBS 1640 culture medium in a gradient of 50, 10, 2, 0.4, 0.08, 0.016, 0.0032, 0.00064, 0.000128, and 0 µM, with two replicates for each well.
(§6) 50 µL of cell supernatant was pipetted from each 96-well plate, followed by the addition of 50 µL of compound dilutions at final […] of 25, 5, 1, 0.2, 0.04, 0.008, 0.0016, 0.00032, 0.000064, and 0 µM. After mixing, the cells were cultured in a constant temperature CO2 incubator for 4 days. Cell supernatant was then added with 100 µL of detection reagent (5% FBS1640 medium and CCK-8 solution in a 10:1 ratio) and incubated in an incubator for 4 hours. […] was read on a microplate reader (TECAN, Spark), and data were analyzed using Graphpad Prism 8 software.

MDA-MB-453 [4] = assay: In vitro proliferation inhibition assay of camptothecin derivatives (Payload), Test Example 1; details: Homo sapiens, MDA-MB-453, 96 h; payload, cultured 4 days, CCK-8; read-out: MDA-MB-453 IC50
Description: as §3, §4, §5, §6

[5] = payload, incubated 5 days, CCK8, OD 450 nm

Row | SMILES | IC50 (T47D [1]) [nM] | IC50 (HT1376) [nM] | IC50 (MDA-MB-453 [2]) [nM] | IC50 (T47D [1]; [5]) [nM] | IC50 (HT1376; [5]) [nM] | IC50 (MDA-MB-453 [2]; [5]) [nM] | IC50 (T47D [3]) [nM] | IC50 (MDA-MB-453 [4]) [nM]
1 | CC[C@@]1(O)C(=O)OCc2c1cc1n(c2=S)Cc2c-1nc1cc(F)c(OC)cc1c2CN [Compound 12] | 0.093 | 1.97 | 0.312 | – | – | – | – | –
2 | CC[C@@]1(O)C(=O)OCc2c1cc1n(c2=S)Cc2c-1nc1cc3c(cc1c2CN)OCCO3 [Compound 13] | 0.059 | 10.9 | 0.797 | – | – | – | – | –
3 | CC[C@@]1(O)C(=O)OCc2c1cc1n(c2=S)Cc2c-1nc1cc(Cl)c(C)cc1c2CN [Compound 14] | 0.25 | 13.8 | 5.23 | – | – | – | – | –
4 | CC[C@@]1(O)C(=O)OCc2c1cc1n(c2=S)Cc2c-1nc1cc(F)c(F)cc1c2CN [Compound 15] | 0.157 | 9.76 | 1.1 | – | – | – | – | –
5 | CC[C@@]1(O)C(=O)OCc2c1cc1n(c2=S)Cc2c-1nc1cc(F)c(C)cc1c2[C@@H](C)N [Compound 16] | 0.141 | 3.87 | 0.481 | – | – | – | – | –
6 | CC[C@@]1(O)C(=O)OCc2c1cc1n(c2=S)Cc2c-1nc1cc(F)c(C)cc1c2CNC(=O)[C@@H](O)C1CC1 [Compound 19] | 0.268 | 9.36 | 1.01 | – | – | – | – | –
7 | CC[C@@]1(O)C(=O)OCc2c1cc1n(c2=S)Cc2c-1nc1cc(F)c(C)cc1c2CNC(=O)[C@H](O)C1CC1 [Compound 20] | 0.245 | 0.917 | 8.06 | – | – | – | – | –
8 | CC[C@@]1(O)C(=O)OCc2c1cc1n(c2=S)Cc2c-1nc1cc(F)c(C)cc1c2CNC(=O)[C@H]1C[C@@H](O)C1 [Compound 21] | 0.108 | 11.6 | 0.294 | – | – | – | – | –
9 | CC[C@@]1(O)C(=O)OCc2c1cc1n(c2=S)Cc2c-1nc1cc(F)c(C)cc1c2CNC(=O)[C@H](C)O [Compound 22] | 0.116 | 5.38 | 0.362 | – | – | – | – | –
10 | CC[C@@]1(O)C(=O)OCc2c1cc1n(c2=S)Cc2c-1nc1cc(F)c(C)cc1c2CNC(=O)[C@@H](C)O [Compound 23] | 0.117 | 5.94 | 0.343 | – | – | – | – | –
11 | CC[C@@]1(OC(=O)Cn2cc(F)c(=O)[nH]c2=O)C(=O)OCc2c1cc1n(c2=S)Cc2c-1nc1cc(F)c(C)cc1c2CN [Compound 24] | – | – | – | 3.6 | 25.4 | 78.4 | – | –
12 | CC[C@@]1(OC(=O)Cn2cc(F)c(=O)[nH]c2=O)C(=O)OCc2c1cc1n(c2=S)Cc2c-1nc1cc(F)c(C)cc1c2CNC(=O)CO [Compound 25] | – | – | – | 2.6 | 8.39 | 103 | – | –
13 | CC[C@@]1(O)C(=O)OCc2c1cc1n(c2=S)Cc2c-1nc1cc(F)c(C)cc1c2CNC(=S)CO [Compound 26] | < 0.003 | 0.014 | 1 | – | – | – | – | –
14 | CC[C@@]1(O)C(=O)OCc2c1cc1n(c2=S)Cc2c-1nc1cc(F)c(C)cc1c2CNCCO [Compound 27] | 0.152 | 2.5 | 0.17 | – | – | – | – | –
15 | CC[C@@]1(O)C(=O)OCc2c1cc1n(c2=S)Cc2c-1nc1cc(F)c(C)cc1c2CNC(=O)C1CCC(O)C1 (some centres unmarked) [Compound 28] | 0.15 | 42.4 | 6.17 | – | – | – | – | –
16 | [2H]C([2H])(O)C(=O)NCc1c2c(nc3cc(F)c(C)cc13)-c1cc3c(c(=S)n1C2)COC(=O)[C@]3(O)CC [Compound 29] | 0.014 | 5.98 | 0.183 | – | – | – | – | –
17 | CC[C@@]1(O)C(=O)OCc2c1cc1n(c2=S)Cc2c-1nc1cc(F)c(OC)cc1c2CNC(=O)[C@H]1C[C@@H](O)C1 [Compound 30] | 0.391 | 66.7 | 1.01 | – | – | – | – | –
18 | CC[C@@]1(O)C(=O)OCc2c1cc1n(c2=S)Cc2c-1nc1cc(F)c(OC)cc1c2CNC(=O)CO [Compound 31] | 0.142 | 19.5 | 0.337 | – | – | – | – | –

Row | SMILES | IC50 (T47D [1]) [nM] | IC50 (HT1376) [nM] | IC50 (MDA-MB-453 [2]) [nM] | IC50 (T47D [1]; [5]) [nM] | IC50 (HT1376; [5]) [nM] | IC50 (MDA-MB-453 [2]; [5]) [nM] | IC50 (T47D [3]) [nM] | IC50 (MDA-MB-453 [4]) [nM]
19 | CC[C@@]1(O)C(=O)OCc2c1cc1n(c2=S)Cc2c-1nc1cc(F)c(OC)cc1c2CNC(=O)[C@H](C)O [Compound 32] | 0.089 | 15.3 | 0.417 | – | – | – | – | –
20 | CC[C@@]1(O)C(=O)OCc2c1cc1n(c2=S)Cc2c-1nc1cc(F)c(OC)cc1c2CNC(=O)OCCO [Compound 33] | 0.392 | 45.4 | 0.599 | – | – | – | – | –
21 | CC[C@@]1(O)C(=O)OCc2c1cc1n(c2=S)Cc2c-1nc1cc(F)c(OC)cc1c2CNC(=O)[C@@H](C)O [Compound 34] | 0.151 | 10.1 | 0.652 | – | – | – | – | –
22 | CC[C@@]1(O)C(=O)OCc2c1cc1n(c2=S)Cc2c-1nc1cc(F)c(OC)cc1c2CNC(=S)CO [Compound 35] | – | 4.94 | ~1.22 | – | – | – | – | –
23 | CC[C@@]1(O)C(=O)OCc2c1cc1n(c2=S)Cc2c-1nc1cc3c(cc1c2CNC(=O)CO)OCCO3 [Compound 36] | 0.119 | 10.3 | 0.029 | – | – | – | – | –
24 | CC[C@@]1(O)C(=O)OCc2c1cc1n(c2=S)Cc2c-1nc1cc3c(cc1c2CNC(=O)OCCO)OCCO3 [Compound 37] | 0.054 | 13.5 | 0.013 | – | – | – | – | –
25 | CC[C@@]1(O)C(=O)OCc2c1cc1n(c2=S)Cc2c-1nc1cc3c(cc1c2CNC(=O)[C@H]1C[C@@H](O)C1)OCCO3 [Compound 38] | 0.234 | 38.4 | 0.121 | – | – | – | – | –
26 | CC[C@@]1(O)C(=O)OCc2c1cc1n(c2=S)Cc2c-1nc1cc3c(cc1c2CNC(=S)CO)OCCO3 [Compound 39] | 0.047 | 8.69 | 0.482 | – | – | – | – | –
27 | CC[C@@]1(O)C(=O)OCc2c1cc1n(c2=S)Cc2c-1nc1cc3c(cc1c2CNC(=O)[C@H](C)O)OCCO3 [Compound 40] | 0.053 | 18.2 | 0.021 | – | – | – | – | –
28 | CC[C@@]1(O)C(=O)OCc2c1cc1n(c2=S)Cc2c-1nc1cc3c(cc1c2CNC(=O)[C@@H](C)O)OCCO3 [Compound 41] | 0.231 | 24.1 | 0.943 | – | – | – | – | –
29 | CC[C@@]1(O)C(=O)OCc2c1cc1n(c2=S)Cc2c-1nc1cc(Cl)c(C)cc1c2CNC(=O)[C@H]1C[C@@H](O)C1 [Example 42] | 0.845 | 40.2 | 4.18 | – | – | – | – | –
30 | CC[C@@]1(O)C(=O)OCc2c1cc1n(c2=S)Cc2c-1nc1cc(Cl)c(C)cc1c2CNC(=O)[C@H](C)O [Example 43] | 0.089 | 9.94 | 1.64 | – | – | – | – | –
31 | CC[C@@]1(O)C(=O)OCc2c1cc1n(c2=S)Cc2c-1nc1cc(F)c(F)cc1c2CNC(=O)[C@H]1C[C@@H](O)C1 [Example 44] | 0.195 | 5.05 | 0.674 | – | – | – | – | –
32 | CC[C@@]1(O)C(=O)OCc2c1cc1n(c2=S)Cc2c-1nc1cc(F)c(F)cc1c2CNC(=O)[C@H](C)O [Example 45] | 2.79 | 3.79 | 4.97 | – | – | – | – | –
33 | CCC1(O)CC(=O)OCc2c1cc1n(c2=O)Cc2c-1nc1cc(F)c(C)cc1c2CN (centres unmarked) [Example 47] | – | – | – | – | – | – | 0.956 | 4.37
34 | CCC1(O)CC(=O)OCc2c1cc1n(c2=O)Cc2c-1nc1cc(F)c(C)cc1c2CCCCO (centres unmarked) [Example 48] | – | – | – | – | – | – | 0.832 | 17.7
35 | CCC1(O)CC(=O)OCc2c1cc1n(c2=O)Cc2c-1nc1cc(F)c(F)cc1c2CN (centres unmarked) [Example 49] | – | – | – | – | – | – | 11 | 24.5
